Results as given in patent publication US8445006B2, “Biomolecular coating for implants” (Georgia Tech Research Corporation, priority 2006, dated 2013).

Columns and labels:
MC3T3-E1 cells = test: Centrifugation cell adhesion assay on ligand-tethered SAMs; type: cell-based, murine; conditions: for ADH50 (ligand density required for half-maximal adhesion): ligand tethered to SAMs, MC3T3-E1
Description: MC3T3-E1 murine immature osteoblast-like cells (Riken Cell Bank, Hirosawa, Japan) were used because of their expression of multiple integrins, including alpha5beta1, alpha2beta1, and alphaVbeta3. Cells were maintained at 37° C. in α-MEM supplemented with 10% FBS and 1% penicillin-streptomycin and passaged every 2-3 days via standard culture techniques.
Self-assembled monolayers (SAMs) of alkanethiols on gold were used to present well-defined, ordered surfaces with anchoring groups within a non-fouling background. Tri(ethylene glycol)-terminated alkanethiol (HS—(CH2)11—(OCH2CH2)3—OH; EG3) and carboxylic acid-terminated alkanethiol (HS—(CH2)11—(OCH2CH2)6—OCH2COOH; EG6-COOH) were previously synthesized and characterized. Gold-coated substrates were prepared by sequential deposition of titanium (100 Å) and gold (200 Å) films via an electron beam evaporator (Thermionics Laboratories, Hayward, Calif., 2×10^−6 Torr, 1 A/s) onto clean 6-well plate lids or glass coverslips. Mixed SAM surfaces were prepared on substrates by immersing in a 1.0 mM mixed solution of EG3/EG6-COOH thiols (4 h). Peptide ligands were tethered using standard peptide chemistry. Briefly, following washing in ethanol and ultrapure H2O, SAMs were incubated in 2.0 mM EDC and 5.0 mM NHS in 0.1 M 2-(N-morpho)-ethanesulfonic acid and 0.5 M NaCl (pH 6.0), and subsequently immersed in a 20 mM solution of 2-mercaptoethanol in deionized H2O. Adhesive ligands in PBS were then incubated on the activated supports for 30 min and the unreacted surface NHS esters were then quenched in 20 mM glycine. Finally, the surfaces were blocked in 1% heat-denatured bovine serum albumin (BSA) and then incubated overnight in DPBS to reduce nonspecific protein adsorption.
A modification of a centrifugation assay was used to apply controlled detachment forces to cells adhering to engineered surfaces. Multi-wells of engineered surfaces were created on gold-coated polystyrene plate lids using silicone gaskets (Grace Bio-Labs, Bend, Oreg.). Mixed SAMs were assembled and ligands tethered at varying densities. MC3T3-E1 cells were labeled with […] calcein-AM, a membrane-permeable green fluorescent dye, in 2 mM dextrose-DPBS for 30 min and resuspended in α-MEM with 10% FBS. Cells were seeded onto the surfaces at 200 cells/mm^2, and allowed to attach for 1 h at 37° C. For blocking antibody experiments, cells were incubated in the presence of function-perturbing antibodies (10 μg/ml) for 10 min with gentle agitation prior to cell seeding. Before centrifugation, cell images were taken using a Nikon TE-300 fluorescence microscope and Spot RT digital camera. Wells were then filled completely with dextrose-PBS, sealed, inverted, and centrifuged for 5 min at a prescribed speed on a Beckman Allegra 6 centrifuge (GH 3.8 rotor) to apply normal detachment forces. Media was then gently aspirated from the wells, and wells were refilled for post-spin image collection. Post/pre-spin cell ratios were determined by image analysis, and this adhesive fraction was plotted against ligand surface density to obtain cell adhesion profiles.

osteoblastic cells = test: In vitro bioresistance and adhesive capacity of poly(OEGMA) brushes on titanium; type: cell-based; conditions: serum-containing media, osteoblastic cells 1 h
Description: Surfaces were incubated in serum-containing media for various times and subsequently challenged with osteoblastic cells for 1 h.

[1] = tested on: bone marrow stromal cells; test: Centrifugation cell adhesion assay on titanium surfaces; type: cell-based, rat; conditions: for stromal cell adhesion (adherent cell fraction): 1 h serum-free, centrifugation 12 g, no antibody, adsorbed on Ti at 20 μg/ml
Description: Primary bone marrow stromal cells were harvested from the femora of young adult male Wistar rats in accordance with an IACUC-approved protocol. After excision, hindleg femora and tibiae were cleared of soft tissue and rinsed in growth medium (α-minimal essential medium supplemented with 10% fetal bovine serum, 1% penicillin-streptomycin, and 0.3 μg/ml amphotericin B). The ends of the long bones were then removed and the marrow space was flushed with culture medium (3-5 ml), using a syringe with an 18-gauge needle. Marrow isolates were pooled, centrifuged, resuspended in growth medium, and seeded for adhesion-dependent selection on tissue culture polystyrene dishes. Non-adherent hematopoietic cells were removed during subsequent medium exchanges, which occurred every other day. Cells were subcultured every two days according to standard techniques. For in vitro osteogenic assays, cells were seeded at 10,000 cells/cm^2 in growth medium. After 24 h, cultures were maintained in osteogenic medium consisting of growth medium supplemented with 50 μg/ml L-ascorbic acid and 3 mM sodium β-glycerophosphate.
The peptide […](GPP)5GFOGER(GPP)5GPC (SEQ ID NO:1) [O=hydroxyproline] was prepared by the Emory University Microchemical Facility using solid phase t-Boc synthesis. Peptide was supplied in the purified form as a trifluoroacetic acid (TFA) salt and reconstituted at a stock concentration of 10 mg/ml in 0.1% TFA. For the in vitro assays, glass chamber slides (16-well Lab-Tek Chamber Slides, Nalge Nunc) or tissue culture-treated polystyrene dishes were coated with 300 Å of pure titanium using an electron beam evaporator at a chamber base pressure between 1-2×10^−6 torr with a deposition rate of 1.5 Å/second. The GFOGER peptide (SEQ ID NO:1) was diluted to 20 μg/ml in Dulbecco's phosphate-buffered saline (PBS) and incubated on the titanium surfaces for 1 h at 22° C.
Cell adhesion to functionalized and untreated titanium surfaces was measured using a centrifugation assay that applies controlled detachment forces. Titanium-coated glass chamber slide wells were reassembled using a silicone-based adhesive and coated with 20 μg/ml GFOGER peptide (SEQ ID NO:1) or 20 μg/ml GRGDSPC (SEQ ID NO:3) peptide (BACHEM). Control titanium slides were coated with 10% FBS (to model serum protein adsorption) or blocking buffer (5% non-fat dry milk in PBS to produce a non adhesive support). […] Initial fluorescence intensity was measured to quantify the number of adherent cells prior to application of centrifugal force. […] After centrifugation, media was exchanged and fluorescence intensity was read to measure remaining adherent cells. For each well, adherent cell fraction was calculated as the ratio of post-spin to pre-spin fluorescence readings. […]

[2] = maximum ligand density, normalized to unblocked controls

Substance	ADH50 (ligand density required for half-maximal adhesion) (MC3T3-E1 cells)	adhesion with blocking antibodies against α5β1 integrin (MC3T3-E1 cells; [2])	reduction of adhesion by antibodies against β3 integrin subunit (MC3T3-E1 cells; [2])	cell adhesion on ligand-presenting poly(OEGMA) brushes (osteoblastic cells)	cell adhesion with blocking anti-α2 antibody ([1]; 20 μg/ml anti-rat α2 antibody)	cell adhesion with function-perturbing anti-αv antibody ([1]; 20 μg/ml anti-rat αv antibody)	stromal cell adhesion (adherent cell fraction) [1]
FNIII7-10: monobiotinylated recombinant fibronectin fragment spanning the 7-10th type III repeats of fibronectin; α5β1 integrin ligand	70 fmol/cm^2	reduced adhesion to background levels	did not alter adhesion significantly	comparable to the unmodified titanium	–	–	–
GGYGGGPC(GPP)5GFOGER(GPP)5GPC [GFOGER peptide]	–	–	–	–	completely eliminated cell adhesion	had no effect on adhesion	greater stromal cell adhesion
GRGDSPC [RGD peptide, linear RGD oligopeptide purchased from BACHEM; primarily supports αvβ3-mediated adhesion, reference compound]	2300 fmol/cm^2	only slightly reduced adhesion	–	comparable to the unmodified titanium	–	–	equivalent to background levels
